This is an account of results in EP4667467A1, “PROTAC DEGRADERS OF MLLT1 AND/OR MLLT3” (Dark Blue Therapeutics Ltd, priority 2024, dated 2025).

Structures are written as SMILES.

This assay deals with T1, MLLT1 (Homo sapiens, UniProt Q03111).
T1 construct: endogenous in cells; host or cells: MV4-11 (ATCC CRL-9591)
T1 sequence (Q03111 1-559): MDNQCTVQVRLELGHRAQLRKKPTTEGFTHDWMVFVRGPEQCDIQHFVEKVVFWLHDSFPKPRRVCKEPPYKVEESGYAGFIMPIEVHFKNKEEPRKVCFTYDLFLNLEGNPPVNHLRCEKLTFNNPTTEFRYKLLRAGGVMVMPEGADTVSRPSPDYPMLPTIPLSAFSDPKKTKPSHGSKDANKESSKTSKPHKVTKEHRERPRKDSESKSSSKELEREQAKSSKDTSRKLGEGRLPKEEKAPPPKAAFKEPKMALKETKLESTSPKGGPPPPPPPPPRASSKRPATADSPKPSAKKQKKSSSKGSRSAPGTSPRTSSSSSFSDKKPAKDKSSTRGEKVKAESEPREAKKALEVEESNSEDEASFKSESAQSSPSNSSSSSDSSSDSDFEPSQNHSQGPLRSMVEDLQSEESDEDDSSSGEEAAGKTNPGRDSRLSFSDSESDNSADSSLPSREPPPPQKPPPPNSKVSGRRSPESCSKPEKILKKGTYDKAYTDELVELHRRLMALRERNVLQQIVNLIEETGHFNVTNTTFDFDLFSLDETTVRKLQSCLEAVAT
Put plainly: MLLT1 Degradation Assay (JESS automated chemiluminescent detection, MV4-11 cells). The conditions noted are these: 24h, with respect to DMSO control; for MLLT1 % Degradation @ 0.01 µM: 0.01 µM (10 nM) test compound; for MLLT1 % Degradation @ 0.1 µM: 0.1 µM (100 nM) test compound; for MLLT 1 % Degradation @ 1 µM: 1 µM (1000 nM) test compound. It counts as cell-based. How it is done:
MLLT1 degradation efficacy of compounds were tested in an automated chemiluminescent detection system (JESS, Cat# 004-650). […] 10 mM DMSO stocks were prepared, and cells were treated with three concentrations of test compounds viz. 1000, 100 and 10 nM at a final DMSO concentration of 0.1% and incubated for 24h at 37°C, 5% CO2. […] Post run, data were analysed using "Compass for SW" software for chemiluminescent detection. The peak area for each band was used for the calculation of MLLT1 degradation with respect to DMSO control. Data is shown as "MLLT1 % degradation".

For `CN1CCC[C@@H]1c1cc2cnc(NC(=O)c3ccc(-c4cnn(CCCC5CCN(c6cccc7c6CN(C6CCC(=O)NC6=O)C7=O)CC5)c4)cc3)cc2[nH]1` (stereo partly drawn) [Example 35, 4-[1-(3-{1-[2-(2,6-dioxopiperidin-3-yl)-1-oxo-3H-isoindol-4-yl]piperidin-4-yl}propyl)pyrazol-4-yl]-N-{2-[(2R)-1-methylpyrrolidin-2-yl]-1H-pyrrolo[3,2-c]pyridin-6-yl}benzamide], the “MLLT1 % Degradation @ 0.01 µM” value was “A (Category A: A ≥ 75% degradation)”, the “MLLT1 % Degradation @ 0.1 µM” value is “A (Category A: A ≥ 75% degradation)” and the “MLLT 1 % Degradation @ 1 µM” value is on record as “A (Category A: A ≥ 75% degradation)”.
Turning to `CN1CCC[C@@H]1c1cc2cnc(NC(=O)c3cccc(OCC#Cc4cccc5c4CN(C4CCC(=O)NC4=O)C5=O)c3)cc2[nH]1` (stereo partly drawn) [Example 58, 3-((3-(2-(2,6-dioxopiperidin-3-yl)-1-oxoisoindolin-4-yl)prop-2-yn-1-yl)oxy)-N-(2-((R)-1-methylpyrrolidin-2-yl)-1H-pyrrolo[3,2-c]pyridin-6-yl)benzamide], the “MLLT1 % Degradation @ 0.01 µM” value was “B (Category B: 50% ≤ B < 75% degradation)”, the “MLLT1 % Degradation @ 0.1 µM” value is on record as “A (Category A: A ≥ 75% degradation)” and the “MLLT 1 % Degradation @ 1 µM” value is on record as “C (Category C: 25% ≤ C < 50% degradation)”.
On the same counts, the results for `CN1CCC[C@@H]1c1cc2cnc(NC(=O)c3ccc(-c4cnn(CCCC#Cc5cccc(C(=O)N[C@H]6CCC(=O)NC6=O)n5)c4)cc3)cc2[nH]1` [Example 62, N-((S)-2,6-dioxopiperidin-3-yl)-6-(5-(4-(4-((2-((R)-1-methylpyrrolidin-2-yl)-1H-pyrrolo[3,2-c]pyridin-6-yl)carbamoyl)phenyl)-1H-pyrazol-1-yl)pent-1-yn-1-yl) picolinamide] are “B (Category B: 50% ≤ B < 75% degradation)”, “A (Category A: A ≥ 75% degradation)” and “B (Category B: 50% ≤ B < 75% degradation)”.
On the same counts, the results for `CN1CCC[C@@H]1c1cc2cnc(NC(=O)c3ccc(OCC#Cc4cccc5c4CN(C4CCC(=O)NC4=O)C5=O)c(Cl)c3)cc2[nH]1` (stereo partly drawn) [Example 23, 3-chloro-4-((3-(2-(2,6-dioxopiperidin-3-yl)-1-oxoisoindolin-4-yl)prop-2-yn-1-yl)oxy)-N-(2-((R)-1-methylpyrrolidin-2-yl)-1H-pyrrolo[3,2-c]pyridin-6-yl)benzamide] are “C (Category C: 25% ≤ C < 50% degradation)”, “C (Category C: 25% ≤ C < 50% degradation)” and “C (Category C: 25% ≤ C < 50% degradation)”.
On the same counts, the results for `CN1CCC[C@@H]1c1cc2cnc(NC(=O)c3ccc(CCCCC#Cc4cccc5c4CN(C4CCC(=O)NC4=O)C5=O)cc3)cc2[nH]1` (stereo partly drawn) [Example 8, 4-(6-(2-(2,6-dioxopiperidin-3-yl)-1-oxoisoindolin-4-yl)hex-5-yn-1-yl)-N-(2-((R)-1-methylpyrrolidin-2-yl)-1H-pyrrolo[3,2-c]pyridin-6-yl)benzamide] are “A (Category A: A ≥ 75% degradation)”, “A (Category A: A ≥ 75% degradation)” and “A (Category A: A ≥ 75% degradation)”.
Regarding `CN1CCC[C@@H]1c1cc2cnc(NC(=O)COCCCCNc3cccc4c3C(=O)N(C3CCC(=O)NC3=O)C4=O)cc2[nH]1` (stereo partly drawn) [Example 40, 2-(4-((2-(2,6-dioxopiperidin-3-yl)-1,3-dioxoisoindolin-4-yl)amino)butoxy)-N-(2-((R)-1-methylpyrrolidin-2-yl)-1H-pyrrolo[3,2-c]pyridin-6-yl)acetamide], the “MLLT1 % Degradation @ 0.1 µM” value is recorded as “C (Category C: 25% ≤ C < 50% degradation)” and the “MLLT 1 % Degradation @ 1 µM” value is recorded as “B (Category B: 50% ≤ B < 75% degradation)”.
For `CN1CCC[C@@H]1c1cc2cnc(NC(=O)c3ccc(CCCC#Cc4cccc5c4CN(C4CCC(=O)NC4=O)C5=O)nc3)cc2[nH]1` (stereo partly drawn) [Example 12, 6-(5-(2-(2,6-dioxopiperidin-3-yl)-1-oxoisoindolin-4-yl)pent-4-yn-1-yl)-N-(2-((R)-1-methylpyrrolidin-2-yl)-1H-pyrrolo[3,2-c]pyridin-6-yl)nicotinamide], the “MLLT1 % Degradation @ 0.01 µM” value was “B (Category B: 50% ≤ B < 75% degradation)”, the “MLLT1 % Degradation @ 0.1 µM” value is on record as “A (Category A: A ≥ 75% degradation)” and the “MLLT 1 % Degradation @ 1 µM” value was “A (Category A: A ≥ 75% degradation)”.
For the compound `CN1CCC[C@@H]1c1cc2cnc(NC(=O)c3ccc(CCC#Cc4cccc5c4n(C)c(=O)n5C4CCC(=O)NC4=O)cc3)cc2[nH]1` (stereo partly drawn) [Example 53, 4-(4-(1-(2,6-dioxopiperidin-3-yl)-3-methyl-2-oxo-2,3-dihydro-1H-benzo[d]imidazol-4-yl)but-3-yn-1-yl)-N-(2-((R)-1-methylpyrrolidin-2-yl)-1H-pyrrolo[3,2-c]pyridin-6-yl)benzamide], the “MLLT1 % Degradation @ 0.01 µM” value is recorded as “A (Category A: A ≥ 75% degradation)”, the “MLLT1 % Degradation @ 0.1 µM” value is recorded as “A (Category A: A ≥ 75% degradation)” and the “MLLT 1 % Degradation @ 1 µM” value was “B (Category B: 50% ≤ B < 75% degradation)”.
`CN1CCC[C@@H]1c1cc2cnc(NC(=O)c3ccc(OCCC#Cc4cccc5c4CN(C4CCC(=O)NC4=O)C5=O)cc3)cc2[nH]1` (stereo partly drawn) [Example 19, 4-((4-(2-(2,6-dioxopiperidin-3-yl)-1-oxoisoindolin-4-yl)but-3-yn-1-yl)oxy)-N-(2-((R)-1-methylpyrrolidin-2-yl)-1H-pyrrolo[3,2-c]pyridin-6-yl)benzamide]: the “MLLT1 % Degradation @ 0.01 µM” value is recorded as “B (Category B: 50% ≤ B < 75% degradation)”, the “MLLT1 % Degradation @ 0.1 µM” value is reported as “A (Category A: A ≥ 75% degradation)” and the “MLLT 1 % Degradation @ 1 µM” value is given as “A (Category A: A ≥ 75% degradation)”.
In the case of `CN1CCC[C@@H]1c1cc2cnc(NC(=O)c3ccc(CCCCC#Cc4cccc(C(=O)N[C@H]5CCC(=O)NC5=O)n4)cc3)cc2[nH]1` [Example 7, N-((S)-2,6-dioxopiperidin-3-yl)-6-(6-(4-((2-((R)-1-methylpyrrolidin-2-yl)-1H-pyrrolo[3,2-c]pyridin-6-yl)carbamoyl)phenyl)hex-1-yn-1-yl)picolinamide], the “MLLT1 % Degradation @ 0.01 µM” value is reported as “A (Category A: A ≥ 75% degradation)”, the “MLLT1 % Degradation @ 0.1 µM” value is recorded as “A (Category A: A ≥ 75% degradation)” and the “MLLT 1 % Degradation @ 1 µM” value is listed as “A (Category A: A ≥ 75% degradation)”.
In the case of `CN1CCC[C@@H]1c1cc2cnc(NC(=O)c3ccc(-c4cnn(CCCC#Cc5ccc6c(c5)CN(C5CCC(=O)NC5=O)C6=O)c4)cc3)cc2[nH]1` (stereo partly drawn) [Example 22, 4-(1-(5-(2-(2,6-dioxopiperidin-3-yl)-1-oxoisoindolin-5-yl)pent-4-yn-1-yl)-1H-pyrazol-4-yl)-N-(2-((R)-1-methylpyrrolidin-2-yl)-1H-pyrrolo[3,2-c]pyridin-6-yl)benzamide], the “MLLT1 % Degradation @ 0.01 µM” value is reported as “A (Category A: A ≥ 75% degradation)”, the “MLLT1 % Degradation @ 0.1 µM” value was “A (Category A: A ≥ 75% degradation)” and the “MLLT 1 % Degradation @ 1 µM” value is “A (Category A: A ≥ 75% degradation)”.
Take `CN1CCC[C@@H]1c1cc2cnc(NC(=O)c3ccc(N4CCC(CC#Cc5cccc6c5CN(C5CCC(=O)NC5=O)C6=O)CC4)nc3)cc2[nH]1` (stereo partly drawn) [Example 16, 6-(4-(3-(2-(2,6-dioxopiperidin-3-yl)-1-oxoisoindolin-4-yl)prop-2-yn-1-yl)piperidin-1-yl)-N-(2-((R)-1-methylpyrrolidin-2-yl)-1H-pyrrolo[3,2-c]pyridin-6-yl)nicotinamide]: the “MLLT1 % Degradation @ 0.01 µM” value was “A (Category A: A ≥ 75% degradation)”, the “MLLT1 % Degradation @ 0.1 µM” value is “A (Category A: A ≥ 75% degradation)” and the “MLLT 1 % Degradation @ 1 µM” value is given as “B (Category B: 50% ≤ B < 75% degradation)”.
In the case of `CN1CCC[C@@H]1c1cc2cnc(NC(=O)c3ccc(CCCCC#Cc4cccc5c4CN(C4CCC(=O)NC4=O)C5=O)nc3)cc2[nH]1` (stereo partly drawn) [Example 10, 6-(6-(2-(2,6-dioxopiperidin-3-yl)-1-oxoisoindolin-4-yl)hex-5-yn-1-yl)-N-(2-((R)-1-methylpyrrolidin-2-yl)-1H-pyrrolo [3,2-c]pyridin-6-yl) nicotinamide], the “MLLT1 % Degradation @ 0.01 µM” value is “A (Category A: A ≥ 75% degradation)”, the “MLLT1 % Degradation @ 0.1 µM” value is given as “A (Category A: A ≥ 75% degradation)” and the “MLLT 1 % Degradation @ 1 µM” value is listed as “B (Category B: 50% ≤ B < 75% degradation)”.
For the compound `CN1CCC[C@@H]1c1cc2cnc(NC(=O)c3ccc(N4CCN(CC5CCN(c6cccc7c6C(=O)N(C6CCC(=O)NC6=O)C7=O)CC5)CC4)nc3)cc2[nH]1` (stereo partly drawn) [Example 5, 6-(4-((1-(2-(2,6-dioxopiperidin-3-yl)-1,3-dioxoisoindolin-4-yl)piperidin-4-yl)methyl)piperazin-1-yl)-N-(2-((R)-1-methylpyrrolidin-2-yl)-1H-pyrrolo[3,2-c]pyridin-6-yl)nicotinamide], the “MLLT1 % Degradation @ 0.01 µM” value is recorded as “B (Category B: 50% ≤ B < 75% degradation)”, the “MLLT1 % Degradation @ 0.1 µM” value was “A (Category A: A ≥ 75% degradation)” and the “MLLT 1 % Degradation @ 1 µM” value is on record as “A (Category A: A ≥ 75% degradation)”.
